This passage reports inhibition and IC50 results from patent US20220402916A1, “SMALL MOLECULE INHIBITORS OF KRAS G12C MUTANT” (Merck Sharp & Dohme Corp., priority 2019, published 2022).

Structures are written as SMILES.

In the first assay the target is T1, Biotinylated KRAS G12C protein (Homo sapiens, UniProt P01116, C118S/C51S/C80L/G12C).
T1 construct: 183 amino acids; biotin on K10
T1 sequence (P01116 with tags, fused parts or gaps isoform P01116-2 G12C/C51S/C80L/C118S): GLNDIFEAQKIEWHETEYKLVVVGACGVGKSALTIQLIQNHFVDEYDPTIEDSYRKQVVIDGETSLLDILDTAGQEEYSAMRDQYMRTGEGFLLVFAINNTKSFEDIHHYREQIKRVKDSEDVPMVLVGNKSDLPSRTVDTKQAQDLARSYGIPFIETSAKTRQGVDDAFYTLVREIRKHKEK
Briefly: SOS-catalyzed nucleotide exchange assay. Particulars: 10,000 nM; 60 minutes of preincubation prior to addition of SOS. It is filed as biochemical. On the procedure:
Compounds are added to this complex, and then after 60 minute incubation time the mixture is treated with recombinant SOS protein and unlabeled GTP. Small molecule inhibitors stabilize the Bodipy-GDP complex whereas the untreated protein rapidly exchanges Bodipy-GDP for unlabeled GTP resulting in reduced TR-FRET signal. […] This mixture is then further diluted to 90 nM in an assay buffer (20 mM HEPES, 150 mM sodium chloride, 10 mM magnesium chloride, and 0.005% Tween) containing 15 nM of Terbium-Streptavidin (Invitrogen, catalog #PV3577) and 900 nM of Bodipy-GDP and incubated at room temperature for six hours. […] Each test compound (10 mM stock in DMSO) is diluted in DMSO to make a 10-point, 3-fold dilution series in a 384-well low dead volume microplate (Labcyte, catalog #LP-0200). Once titrations are made, 10 nL of the diluted compounds is acoustically dispensed into a 384-well assay plate (Corning, catalog #3820) using an Echo 550 (Labcyte). […] Each well then receives 3 μL of 240 nM recombinant human SOS protein and 9 mM GTP (Sigma, G8877) in assay buffer and is incubated at room temperature for 60 minutes. The time-resolved fluorescence resonance energy transfer signal for the assay plate is measured on an Envision (PerkinElmer) plate reader: Excitation filter=340 nm; emission1=495 nm; emission2=520 nm; dichroic mirror=D400/D505; delay time=100 μs. The signal of each well is determined as the ratio of the emission at 520 nm to that at 495 nm. […] The apparent effect as a function of compound concentration is fit to a four parameter logistic equation.
With `C=CC(=O)N1CCN(c2cc(C(=O)N(C)CCN(C)C)nc3c2CCN(c2cccc4cccc(C)c24)C3)CC1` [Compound 15, 4-(4-acryloylpiperazin-1-yl)-N-(2-(dimethylamino)ethyl)-N-methyl-7-(8-methylnaphthalen-1-yl)-5,6,7,8-tetrahydro-1,7-naphthyridine-2-carboxamide], the inhibition (usually how much of the control response was suppressed) at 10 µM came to 33%. For `C=CC(=O)N1CCN(c2cc(C(=O)N[C@@H]3COC[C@@H]3N3CCOCC3)nc3c2CCN(c2cccc4cccc(C)c24)C3)CC1` (racemic) [Compound 27, rac-4-(4-acryloylpiperazin-1-yl)-7-(8-methylnaphthalen-1-yl)-N-(cis-4-morpholinotetrahydrofuran-3-yl)-5,6,7,8-tetrahydro-1,7-naphthyridine-2-carboxamide], 10 µM produced 29% inhibition.

`C=CC(=O)N1CCN(c2cc(C(=O)NCCN3CCOCC3)nc3c2CCN(c2cccc4ccccc24)C3)CC1` [Compound 9, 4-(4-acryloylpiperazin-1-yl)-N-(2-morpholinoethyl)-7-(naphthalen-1-yl)-5,6,7,8-tetrahydro-1,7-naphthyridine-2-carboxamide]: testing at 10 µM gave an inhibition of 33%.

Consider `C=CC(=O)N1CCN(c2cc(C(=O)N(C)C3CCN(C)C3)nc3c2CCN(c2cccc4cccc(C)c24)C3)CC1` (racemic) [Compound 51, rac-4-(4-acryloylpiperazin-1-yl)-N-methyl-7-(8-methylnaphthalen-1-yl)-N-(1-methylpyrrolidin-3-yl)-5,6,7,8-tetrahydro-1,7-naphthyridine-2-carboxamide], for which at 10 µM the inhibition was 36%. `C=CC(=O)N1CCN(c2cc(C(=O)NC(C)(C)CN(C)C)nc3c2CCN(c2cccc4cccc(C)c24)C3)CC1` [Compound 17, 4-(4-acryloylpiperazin-1-yl)-N-(1-(dimethylamino)-2-methylpropan-2-yl)-7-(8-methylnaphthalen-1-yl)-5,6,7,8-tetrahydro-1,7-naphthyridine-2-carboxamide] displayed an inhibition at 10 µM of 16%.

On to `C=CC(=O)N1CCN(c2cc(C(=O)NCCCN(C)C)nc3c2CCN(c2cccc4ccccc24)C3)CC1` [Compound 4, 4-(4-acryloylpiperazin-1-yl)-N-(3-(dimethylamino)propyl)-7-(naphthalen-1-yl)-5,6,7,8-tetrahydro-1,7-naphthyridine-2-carboxamide], for which testing at 10 µM gave an inhibition of 23%.

The assay is the same for the next values; noted with them: apparent potency; preincubation time of 60 minutes prior to addition of SOS.
As for `C=CC(=O)N1CCN(c2cc(C(=O)N[C@H]3COC[C@@H]3N3CCN(C)CC3)nc3c2CCN(c2cccc4cccc(C)c24)C3)CC1` (racemic) [Compound 33, rac-4-(4-acryloylpiperazin-1-yl)-7-(8-methylnaphthalen-1-yl)-N-(trans-4-(4-methylpiperazin-1-yl)tetrahydrofuran-3-yl)-5,6,7,8-tetrahydro-1,7-naphthyridine-2-carboxamide], the IC50 – broadly, the concentration needed to halve the response being measured – is 6650 nM. With `C=CC(=O)N1CCN(c2cc(C(=O)N[C@@H]3CCCC[C@H]3N)nc3c2CCN(c2cccc4cccc(C)c24)C3)CC1` [Compound 31, 4-(4-acryloylpiperazin-1-yl)-N-((1R,2R)-2-aminocyclohexyl)-7-(8-methylnaphthalen-1-yl)-5,6,7,8-tetrahydro-1,7-naphthyridine-2-carboxamide], the half-maximal inhibitory concentration (IC50) amounted to 426 nM. For `C=CC(=O)N1CCN(c2cc(C(=O)NCC(C)N(C)C)nc3c2CCN(c2cccc4ccccc24)C3)CC1` (racemic) [Compound 5, rac-4-(4-acryloylpiperazin-1-yl)-N-(2-(dimethylamino)propyl)-7-(naphthalen-1-yl)-5,6,7,8-tetrahydro-1,7-naphthyridine-2-carboxamide], the IC50 came out at 6020 nM. Regarding `C=CC(=O)N1CCN(c2cc(C(=O)NCCN(C)C)nc3c2CCN(c2cccc4ccccc24)C3)CC1` [Compound 2, 4-(4-acryloylpiperazin-1-yl)-N-(2-(dimethylamino)ethyl)-7-(naphthalen-1-yl)-5,6,7,8-tetrahydro-1,7-naphthyridine-2-carboxamide], the IC50 came to 3150 nM. For `C=CC(=O)N1CCN(c2cc(C(=O)N[C@H]3CCC[C@@H]3N3CCOCC3)nc3c2CCN(c2cccc4cccc(C)c24)C3)CC1` (racemic) [Compound 34, rac-4-(4-acryloylpiperazin-1-yl)-7-(8-methylnaphthalen-1-yl)-N-(trans-2-morpholinocyclopentyl)-5,6,7,8-tetrahydro-1,7-naphthyridine-2-carboxamide], the IC50 worked out at 3570 nM. Still for that read-out and setting: for `C=CC(=O)N1CCN(c2cc(C(=O)N3CCCC3CN3CCCCCC3)nc3c2CCN(c2cccc4cccc(C)c24)C3)CC1` (racemic) [Compound 45, rac-1-(4-(2-(2-(azepan-1-ylmethyl)pyrrolidine-1-carbonyl)-7-(8-methylnaphthalen-1-yl)-5,6,7,8-tetrahydro-1,7-naphthyridin-4-yl)piperazin-1-yl)prop-2-en-1-one] the value was 5350 nM; for `C=CC(=O)N1CCN(c2cc(C(=O)N[C@H](C)CN3CCOCC3)nc3c2CCN(c2cccc4cccc(C)c24)C3)CC1` [Compound 24, (R)-4-(4-acryloylpiperazin-1-yl)-7-(8-methylnaphthalen-1-yl)-N-(1-morpholinopropan-2-yl)-5,6,7,8-tetrahydro-1,7-naphthyridine-2-carboxamide], 1490 nM.

Turning to `C=CC(=O)N1CCN(c2cc(C(=O)N[C@@H]3[C@H](N)CCCC3(F)F)nc3c2CCN(c2cccc4cccc(C)c24)C3)C[C@@H]1CC#N` [Compound 95, 4-((S)-4-acryloyl-3-(cyanomethyl)piperazin-1-yl)-N-((1R,6R)-6-amino-2,2-difluorocyclohexyl)-7-(8-methylnaphthalen-1-yl)-5,6,7,8-tetrahydro-1,7-naphthyridine-2-carboxamide], the half-inhibitory concentration (IC50) was determined as 793 nM. Take `C=CC(=O)N1CCN(c2cc(C(=O)NC3CCCCN(C)C3)nc3c2CCN(c2cccc4cccc(C)c24)C3)CC1` (racemic) [Compound 53, rac-4-(4-acryloylpiperazin-1-yl)-N-(1-methylazepan-3-yl)-7-(8-methylnaphthalen-1-yl)-5,6,7,8-tetrahydro-1,7-naphthyridine-2-carboxamide]: the IC50 stood at 5360 nM. Take `C=CC(=O)N1CCN(c2cc(C(=O)N[C@@H]3CCC[C@H]3N(C)C)nc3c2CCN(c2cccc4cccc(C)c24)C3)CC1` (racemic) [Compound 29, rac-4-(4-acryloylpiperazin-1-yl)-N-(trans-2-(dimethylamino)cyclopentyl)-7-(8-methylnaphthalen-1-yl)-5,6,7,8-tetrahydro-1,7-naphthyridine-2-carboxamide]: the IC50 turned out to be 259 nM. Same read-out and setting: for `C=CC(=O)N1CCN(c2cc(C(=O)NCC3CCCN(C)C3)nc3c2CCN(c2cccc4cccc(C)c24)C3)CC1` (racemic) [Compound 56, rac-4-(4-acryloylpiperazin-1-yl)-7-(8-methylnaphthalen-1-yl)-N-((1-methylpiperidin-3-yl)methyl)-5,6,7,8-tetrahydro-1,7-naphthyridine-2-carboxamide] the value was 3650 nM; for `C=CC(=O)N1CCN(c2cc(C(=O)NC3CN(C)C3)nc3c2CCN(c2cccc4cccc(C)c24)C3)CC1` [Compound 48, 4-(4-acryloylpiperazin-1-yl)-N-(1-methylazetidin-3-yl)-7-(8-methylnaphthalen-1-yl)-5,6,7,8-tetrahydro-1,7-naphthyridine-2-carboxamide], 7290 nM; for `C=CC(=O)N1CCN(c2cc(C(=O)NCCCN(C)C)nc3c2CCN(c2cccc4ccccc24)C3)CC1` [Compound 4, 4-(4-acryloylpiperazin-1-yl)-N-(3-(dimethylamino)propyl)-7-(naphthalen-1-yl)-5,6,7,8-tetrahydro-1,7-naphthyridine-2-carboxamide], 9400 nM.
